For assay [1], the system named is Zika virus. Kind of assay: Functional CPE-based assay to measure dose dependent changes in antiviral-drug inhibitory efficacy against Zika virus MR766 in Vero E6 miRFP670 cells (cotreated with P-gp inhibitor, CP100356). Cells are treated with antiviral candidates that are serially diluted. EC50 is reported via analysis of MTS assay as a readout of CPE. The assay has been performed by KU Leuven. The following applies: Zika virus; for EC90: P-gp concentration 500 nM, P-gp inhibitor CP100356. The format is organism-based, Chlorocebus sabaeus, Vero C1008.

The test system of assay [2] is dengue virus type 2. Kind of assay: Functional assay to measure dose dependent changes in antiviral-drug inhibitory efficacy against Dengue virus type 2 New Guinea C in Vero E6 miRFP670 cells (cotreated with P-gp inhibitor, CP100356). Cells are treated with antiviral candidates that are serially diluted, following infection, cells are fixed. EC50 is reported via analysis of fluorescence intensity using high-content imager. The …. The conditions noted are these: Dengue virus; for EC90: P-gp concentration 500 nM, P-gp inhibitor CP100356. The format is organism-based, Chlorocebus sabaeus, Vero C1008.

Bounds are passed on as bounds.

For the molecule `N#Cc1cccc(-c2nc3c(C(=O)Nc4ccc5c(c4)CNC5)cc(F)cc3[nH]2)c1`, the concentration giving a half-maximal response (EC50) (in general, the concentration that produces a half-maximal response) is greater than 50 µM in assay [1] (Vero C1008) and greater than 6.25 µM in assay [2] (Vero C1008). In addition, the EC90 (commonly the concentration at which the effect reaches the 90% level) in assay [1] (Vero C1008, Baseline response 0 %, Hill slope 0.393, Maximum measured 36.291 %, Maximum response 100 %, Minimum measured 0.187 %, R squared 0.325) is greater than 50 µM; in assay [2] (Vero C1008, Baseline response 0 %, Hill slope 1.695, Maximum measured 158.102 %, Maximum response 100 %, Minimum measured 53.067 %, R squared 0.44) it was greater than 6.25 µM.

With `O=C1Cc2c(cccc2C(=O)Nc2ccc3c(c2)CCNCC3)N1`, the EC50 in assay [1] (Vero C1008) and in assay [2] (Vero C1008) was greater than 50 µM each time. Also, the EC90 was greater than 50 µM in assay [1] (Vero C1008, Maximum measured 3.486 %, Minimum measured -0.899 %) and greater than 50 µM in assay [2] (Vero C1008, Maximum measured 144.677 %, Minimum measured 92.434 %).

As to `COc1cccc(-c2nc3c(C(=O)Nc4ccc5c(c4)CNC5)cc(F)cc3[nH]2)c1`, the EC50 in assay [1] (Vero C1008) and in assay [2] (Vero C1008) was greater than 50 µM each time. The EC90 in assay [1] (Vero C1008, Baseline response 0 %, Hill slope -1.02, Maximum measured 11.362 %, Maximum response 100 %, Minimum measured -3.329 %, R squared 0.203) is greater than 50 µM; in assay [2] (Vero C1008, Maximum measured 205.039 %, Minimum measured 143.371 %), greater than 50 µM.

As for `O=C(Nc1cnc2c(c1)CNC2)c1cc(F)cc2[nH]ncc12`, the EC50 in assay [1] (Vero C1008) and in assay [2] (Vero C1008) was greater than 50 µM throughout. Also, the EC90 in assay [1] (Vero C1008, Baseline response 0 %, Hill slope 2.313, Maximum measured 10.311 %, Maximum response 100 %, Minimum measured -0.319 %, R squared 0.353) was greater than 50 µM; in assay [2] (Vero C1008, Maximum measured 142.482 %, Minimum measured 85.178 %), greater than 50 µM.

On to `COc1ccccc1-c1nc2c(C(=O)Nc3ccc4c(c3)CNC4)cc(F)cc2[nH]1`, for which the EC50 is greater than 50 µM in assay [1] (Vero C1008) and greater than 12.5 µM in assay [2] (Vero C1008). The EC90 was greater than 50 µM in assay [1] (Vero C1008, Baseline response 0 %, Hill slope 1.211, Maximum measured 45.367 %, Maximum response 100 %, Minimum measured -3.491 %, R squared 0.953) and greater than 12.5 µM in assay [2] (Vero C1008, Baseline response 0 %, Hill slope -1.284, Maximum measured 263.72 %, Maximum response 267.598 %, Minimum measured 165.032 %, R squared 0.972).

Turning to `O=C(Nc1ccc2c(c1)CNC2)c1cc(F)cc2[nH]c(-c3cccc(F)c3)nc12`, the EC50 in assay [1] (Vero C1008) is greater than 50 µM; in assay [2] (Vero C1008), greater than 1.56 µM. Also, the EC90 in assay [1] (Vero C1008, Baseline response 0 %, Hill slope 2.278, Maximum measured 12.458 %, Maximum response 100 %, Minimum measured -7.568 %, R squared 0.376) is greater than 50 µM; in assay [2] (Vero C1008, Baseline response 0 %, Hill slope -0.435, Maximum measured 206.615 %, Maximum response 236.845 %, Minimum measured 186.851 %, R squared 0.182), greater than 1.56 µM.

As to `N#Cc1cc2c(cc1NC(=O)c1cc(F)cc3[nH]ncc13)CNC2`, the results for the EC50 in assay [1] (Vero C1008) and in assay [2] (Vero C1008) were 2.09 µM and greater than 25 µM, respectively. In addition, the EC90 in assay [1] (Vero C1008, Baseline response 0 %, EC90 CI (lower) 2.64 uM, EC90 CI (upper) 7.54 uM, Hill slope 2.894, Maximum measured 123.396 %, Maximum response 100 %, Minimum measured 1.493 %, R squared 0.93) was 4.46 µM; in assay [2] (Vero C1008, Maximum measured 167.339 %, Minimum measured 79.168 %), greater than 25 µM.

Consider `Cc1cccc(-c2nc3c(C(=O)Nc4ccc5c(c4)CNC5)cc(F)cc3[nH]2)c1`, for which the EC50 in assay [1] (Vero C1008) and in assay [2] (Vero C1008) was greater than 50 µM throughout. In addition, the EC90 is greater than 50 µM in assay [1] (Vero C1008, Maximum measured 1.316 %, Minimum measured -3.721 %) and greater than 50 µM in assay [2] (Vero C1008, Maximum measured 188.282 %, Minimum measured 128.713 %).

On to `O=C(Nc1ccc2c(c1)CNC2)c1ccc2c(C3=CCNCC3)csc2c1`, for which the EC50 was 9.31 µM in assay [1] (Vero C1008) and 1.33 µM in assay [2] (Vero C1008). The EC90 in assay [1] (Vero C1008, Baseline response 0 %, Hill slope 1.989, Maximum measured 64.405 %, Maximum response 100 %, Minimum measured 3.372 %, R squared 0.951) was greater than 12.5 µM; in assay [2] (Vero C1008, Baseline response 0 %, Hill slope -1.321, Maximum measured 86.909 %, Maximum response 100 %, Minimum measured 20.548 %, R squared 0.914), greater than 6.25 µM.

As to `Cc1ccc(-c2nc3c(C(=O)Nc4ccc5c(c4)CNC5)cc(F)cc3[nH]2)cc1`, the EC50 in assay [1] (Vero C1008) and in assay [2] (Vero C1008) was greater than 50 µM throughout. The EC90 in assay [1] (Vero C1008, Baseline response 0 %, Hill slope 1.828, Maximum measured 11.314 %, Maximum response 100 %, Minimum measured -7.525 %, R squared 0.394) was greater than 50 µM; in assay [2] (Vero C1008, Baseline response 0 %, Hill slope -1.93, Maximum measured 263.734 %, Maximum response 225.04 %, Minimum measured 80.528 %, R squared 0.789), greater than 50 µM.

Regarding `NCc1csc2cc(C(=O)Nc3ccc4c(c3)CNC4)ccc12`, the EC50 in assay [1] (Vero C1008) and in assay [2] (Vero C1008) was greater than 50 µM each time. The EC90 is greater than 50 µM in assay [1] (Vero C1008, Baseline response 0 %, Hill slope 0.999, Maximum measured 5.799 %, Maximum response 100 %, Minimum measured -1.302 %, R squared 0.306) and greater than 50 µM in assay [2] (Vero C1008, Maximum measured 124.572 %, Minimum measured 93.265 %).

`O=C(Nc1ccc2c(c1)CNC2)c1cccc2c(C3CNC3)n[nH]c12`: the concentration for a half-maximal effect (EC50) is 9.06 µM in assay [1] (Vero C1008) and greater than 50 µM in assay [2] (Vero C1008). Moreover, the concentration for an effect of 90% (EC90) in assay [1] (Vero C1008, Baseline response 0 %, EC90 CI (lower) 13.229 uM, EC90 CI (upper) 28.268 uM, Hill slope 2.896, Maximum measured 113.87 %, Maximum response 100 %, Minimum measured -0.433 %, R squared 0.955) was 19.3 µM; in assay [2] (Vero C1008, Maximum measured 103.764 %, Minimum measured 75.286 %), greater than 50 µM.

For the molecule `O=C(Nc1ccc2c(c1)CNC2)c1cc(F)cc2[nH]c(-c3ccc(F)cc3)nc12`, the EC50 in assay [1] (Vero C1008) and in assay [2] (Vero C1008) was greater than 50 µM in each case. Besides, the EC90 is greater than 50 µM in assay [1] (Vero C1008, Baseline response 0 %, Hill slope 2.324, Maximum measured 27.659 %, Maximum response 100 %, Minimum measured -7.999 %, R squared 0.219) and greater than 50 µM in assay [2] (Vero C1008, Maximum measured 176.058 %, Minimum measured 96.502 %).

Take `COc1cc(-c2cc(NC(=O)c3cc(F)cc4[nH]ncc34)cc3c2CNC3)ccn1`: the EC50 was 3.92 µM in assay [1] (Vero C1008) and greater than 50 µM in assay [2] (Vero C1008). Besides, the EC90 in assay [1] (Vero C1008, Baseline response 0 %, EC90 CI (lower) 3.129 uM, EC90 CI (upper) 14.718 uM, Hill slope 4.011, Maximum measured 135.364 %, Maximum response 100 %, Minimum measured -0.295 %, R squared 0.873) was 6.79 µM; in assay [2] (Vero C1008, Baseline response 0 %, Hill slope 0.386, Maximum measured 113.678 %, Maximum response 100 %, Minimum measured 63.234 %, R squared 0.283), greater than 50 µM.

Take `O=C(Nc1cc2c(c(C3=CCS(=O)(=O)CC3)c1)CNC2)c1cc(F)cc2[nH]ncc12`: the EC50 is greater than 50 µM in assay [1] (Vero C1008) and greater than 25 µM in assay [2] (Vero C1008). Further, the EC90 in assay [1] (Vero C1008, Maximum measured 6.141 %, Minimum measured -2.074 %) was greater than 50 µM; in assay [2] (Vero C1008, Maximum measured 118.058 %, Minimum measured 98.99 %) it was greater than 25 µM.

Consider `O=C(Nc1ccc2c(c1)CNC2)c1cc(Cl)cc2c1cnn2C1CCC1`, for which the EC50 in assay [1] (Vero C1008) is 1.26 µM; in assay [2] (Vero C1008), greater than 6.25 µM. The EC90 in assay [1] (Vero C1008, Baseline response 0 %, EC90 CI (lower) 1.13 uM, EC90 CI (upper) 4.462 uM, Hill slope 3.792, Maximum measured 124.257 %, Maximum response 100 %, Minimum measured 13.491 %, R squared 0.856) is 2.25 µM; in assay [2] (Vero C1008, Maximum measured 167.025 %, Minimum measured 94.774 %), greater than 6.25 µM.

Take `O=C(Nc1cc2c(c(C3=CCOCC3)c1)CNC2)c1cc(F)cc2[nH]ncc12`: the EC50 in assay [1] (Vero C1008) was 7.33 µM; in assay [2] (Vero C1008), greater than 25 µM. Besides, the EC90 in assay [1] (Vero C1008, Baseline response 0 %, EC90 CI (lower) 5.793 uM, EC90 CI (upper) 20.937 uM, Hill slope 5.397, Maximum measured 131.01 %, Maximum response 100 %, Minimum measured -1.308 %, R squared 0.937) is 11 µM; in assay [2] (Vero C1008, Maximum measured 218.898 %, Minimum measured 80.524 %), greater than 25 µM.

Turning to `N[C@H]1Cc2ccc(NC(=O)c3cccc4c3CC(=O)N4)cc2C1`, the EC50 in assay [1] (Vero C1008) and in assay [2] (Vero C1008) was greater than 50 µM throughout. Further, the EC90 in assay [1] (Vero C1008, Maximum measured 1.094 %, Minimum measured -1.183 %) was greater than 50 µM; in assay [2] (Vero C1008, Maximum measured 137.168 %, Minimum measured 87.065 %), greater than 50 µM.

Source of the values: ChEMBL document CHEMBL5661943, “ASAP - In vitro antiviral effect” (2024).
